From PMC11973503 (2024) come the findings set out here.

In experiment [1] the test system is Seq 6 dsDNA (5'-CTTCGATAGTG) (DNA, duplex) CTTCGATAGTG/CACTATCGAAG
Description: fluorescence quantum yield titration. As to conditions: 100 mM KCl; 10 mM HEPES pH 7, 0.4 mM EDTA, 25 °C.

Experiment [2] deals with Poly rA ⋅ Poly rU (RNA, polymer) A/U. Description: thermal melting. As to conditions: 100 mM KCl; 10 mM HEPES, 0.4 mM EDTA; 5 μM duplex, ligand 1:10 per base pair; Tm without ligand 58±0.4.
The test system of experiment [3] is Seq 5 dsDNA (DNA, duplex) GCGCCCGC/GCGGGCGC
Nature of the experiment: thermal melting. To be noted: 100 mM KCl; 10 mM HEPES, 0.4 mM EDTA; 5 μM duplex, ligand 1:10 per base pair; Tm without ligand 54±0.7.

Experiment [4] relates to Seq 6 dsDNA (DNA, duplex) CTTCGATAGTG/CACTATCGAAG
Description: thermal melting. As to conditions: 100 mM KCl; 10 mM HEPES, 0.4 mM EDTA; 5 μM duplex, ligand 1:10 per base pair; Tm without ligand 45±1.1.

Experiment [5] concerns HTG DNA (DNA, G4) AGGGTTAGGGTTAGGGTTAGGG
Description: thermal melting. To be noted: 100 mM KCl; 10 mM HEPES, 0.4 mM EDTA; ligand to HTG 2.2:1; Tm without ligand 57±1.9.

For experiment [6], the system named is Poly dA ⋅ Poly dT (DNA, polymer) A/T. Description: thermal melting. To be noted: 100 mM KCl; 10 mM HEPES, 0.4 mM EDTA; 5 μM duplex, ligand 1:10 per base pair; Tm without ligand 72±1.0.
Experiment [7] deals with Seq 4 (GCGGGGGC)2 (DNA, duplex) GCGGGGGC/GCCCCCGC
Description: fluorescence increase (ΔF), plate reader. As to conditions: 50 mM NaCl; 10 mM sodium cacodylate, 0.5 mM EDTA, pH 6.0; 1 µM duplex, 1:1 ligand.

For experiment [8], the system named is HTG DNA (human telomeric G-quadruplex), d[AG3(T2AG3)3] (DNA, G4) AGGGTTAGGGTTAGGGTTAGGG
Description: thermal melting. As to conditions: 100 mM KCl; derived from two Tm; 10 mM HEPES, 0.4 mM EDTA; 5 µM DNA; ligand to HTG 2.2:1.

Experiment [9] deals with Poly rA ⋅ Poly rU (RNA, polymer) A/U. Description: thermal melting. To be noted: 100 mM KCl, derived from two Tm, 10 mM HEPES, 0.4 mM EDTA, ligand 1:10 per base pair.
Experiment [10] has as its system Seq 5 dsDNA (5'-GCGCCCGC) (DNA, duplex) GCGCCCGC/GCGGGCGC
Nature of the experiment: thermal melting. As to conditions: 100 mM KCl; 10 mM HEPES pH not given, 0.4 mM EDTA; 5 µM duplex; ligand 1:10 per base pair.

In experiment [11] the test system is Seq 2 (CCCCGGGG)2 (DNA, duplex) CCCCGGGG
Description: fluorescence increase (ΔF), plate reader. As to conditions: 50 mM NaCl; 10 mM sodium cacodylate, 0.5 mM EDTA, pH 6.0; 1 µM duplex, 1:1 ligand.

In experiment [12] the test system is Seq 5 dsRNA (RNA, duplex) GCGCCCGC/GCGGGCGC
Description: thermal melting. As to conditions: 100 mM KCl; 10 mM HEPES pH not given, 0.4 mM EDTA; 5 µM duplex; ligand 1:10 per base pair.

The subject of experiment [13] is Poly dA ⋅ Poly dT (DNA, polymer) A/T. Nature of the experiment: thermal melting. To be noted: 100 mM KCl, derived from two Tm, 10 mM HEPES, 0.4 mM EDTA, ligand 1:10 per base pair.
Experiment [14] concerns Seq 6 dsDNA (5'-CTTCGATAGTG) (DNA, duplex) CTTCGATAGTG/CACTATCGAAG
Description: thermal melting. To be noted: 100 mM KCl; derived from two Tm; 10 mM HEPES, 0.4 mM EDTA; ligand 1:10 per base pair.

For experiment [15], the system named is Seq 3 (GGGGCGGG)2 (DNA, duplex) GGGGCGGG/CCCGCCCC
Description: fluorescence increase (ΔF), plate reader. As to conditions: 50 mM NaCl; 10 mM sodium cacodylate, 0.5 mM EDTA, pH 6.0; 1 µM duplex, 1:1 ligand.

Experiment [16] concerns Seq 1 (GGGGCCCC)2 (DNA, duplex) GGGGCCCC
Nature of the experiment: fluorescence increase (ΔF), plate reader. To be noted: 50 mM NaCl; 10 mM sodium cacodylate, 0.5 mM EDTA, pH 6.0; 1 µM duplex, 1:1 ligand.

As for `CN1C(=Cc2cc[n+](C)c3ccccc23)Sc2ccccc21`, in [1], the binding entry is recorded as “yes”. Moreover, the Tm in experiment [2] came out at 58±1.1 °C; in experiment [3], 54±1.6 °C; in experiment [4] it was 52±1.0 °C; in experiment [5] it was 61±1.2 °C; in experiment [6], 73±0.3 °C.
As usually defined, the ΔTm is the change in melting temperature against a reference sample. With `CN1C(=Cc2cc[n+](CCCCC(=O)NCCSC[C@H]3O[C@@H](O[C@@H]4[C@@H](O)[C@H](N)C[C@H](N)[C@H]4O[C@H]4O[C@H](CN)[C@@H](O)[C@H](O)[C@H]4N)[C@H](O)[C@@H]3O[C@H]3O[C@@H](CN)[C@@H](O)[C@H](O)[C@H]3N)c3ccccc23)Sc2ccccc21`, the binding entry in [7], in experiment [11], in [15] and in experiment [16] was “yes” throughout. In addition, the ΔTm in experiment [8] amounted to 10 °C; in experiment [9], 21 °C; in experiment [13], 1 °C; in experiment [14], 13 °C. The Tm increase in experiment [10] amounted to 10.8 °C; in experiment [12] it was 11 °C.
As for `CN1C(=Cc2cc[n+](CCCCC(=O)NC[C@H]3O[C@@H](O[C@@H]4[C@@H](O)[C@H](N)C[C@H](N)[C@H]4O[C@H]4O[C@H](CN)[C@@H](O)[C@H](O)[C@H]4N)[C@H](O)[C@@H]3O[C@H]3O[C@@H](CN)[C@@H](O)[C@H](O)[C@H]3N)c3ccccc23)Sc2ccccc21`, the binding result in experiment [7], in experiment [11], in [15] and in [16] was “yes” each time. The shift in melting temperature (ΔTm) in experiment [8] amounted to 8 °C; in [9], 13 °C; in experiment [13], 0 °C; in [14], 9 °C. In addition, the figures for the Tm increase in [10] and in experiment [12] were 13.8 °C and 9.7 °C, respectively.
